Laboratory results published in EP0255100A2, “Use of trimetrexate and its salts for the preparation of pharmaceutical compositions for treating infections of the mycobacterium-avium-intracellulare complex” (WARNER-LAMBERT COMPANY, priority 1986, dated 1988).
Converted amounts (≈) assume the structure as drawn. Where two headings read alike, the source gives them in different places.

Tests used:
[1] = tested on: Mycobacterium avium-intracellulare complex; assay: radiometric assay (14CO2 release from 14C palmitic acid in 7H12 medium, BACTEC 460), percent microorganism killed; assay type: cell-based; details: for killing at 16 µg/mL: Mycobacterium avium-intracellulare, 168 h, read-out: Percent Microorganism Killed One Week Post
[2] = tested on: Mycobacterium avium-intracellulare complex; assay: minimal inhibitory concentration by the standard T100 growth inhibition method; assay type: cell-based
Method: The activity of trimetrexate at several concentrations ranging from 2 to 64 micrograms/ml was tested against fifteen strains of Mycobacterium avium-intracellulare isolated from AIDS patients who were also suffering from infections of the MAI complex. Drug activity was measured using both a radiometric assay and growth inhibition analysis by the T100 method. (S.H. Siddiqi et al., J. Clin. Microbiol., 22: 919-923 (1985); S.H. Siddiqi et al., J. Clin. Microbiol., 13: 908-912 (1981); and D.E. Snyder et al., Am. Rev. Respir. Dis., 123: 402-406 (1981).
In a second test, the minimal inhibitory concentration (MIC) required to inhibit 99% and 99.9% growth of the test strains of the Mycobacterium avium-intracellulare complex was determined employing the standard T100 method. The results appear in Table II where the MIC value is given for each of the tested MAI complex strains.

[3] = MAI Complex Strain 109, trimetrexate 16 µg/ml

## COc1cc(NCc2ccc3nc(N)nc(N)c3c2C)cc(OC)c1OC [trimetrexate, 5-methyl-6-{[(3,4,5-trimethoxyphenyl)amino]methyl}-2-4-quinazolinediamine]
[1]; [3]
  Percent Microorganism Killed One Week Post: 42%
  killing at 16 µg/mL: 42%
[1]; MAI Complex Strain 100, trimetrexate 16 µg/ml
  killing at 16 µg/mL: 65%
[1]; MAI Complex Strain 101, trimetrexate 16 µg/ml
  killing at 16 µg/mL: 68%
[1]; MAI Complex Strain 108, trimetrexate 16 µg/ml
  killing at 16 µg/mL: 70%
[1]; MAI Complex Strain 116, trimetrexate 16 µg/ml
  killing at 16 µg/mL: 91%
[1]; all strains of the MAI complex tested, trimetrexate 16 µg/ml alone
  bactericidal activity: potent bactericidal activity
[2]; MAI Complex Strain 100, 99% growth inhibition, read-out: Approximate Minimal Inhibitory Concentration (MIC) 99%
  MIC: 2 µg/mL (≈ 5.41 µM)
[2]; MAI Complex Strain 100, 99.9% growth inhibition, read-out: Approximate Minimal Inhibitory Concentration (MIC) 99.9%
  MIC: 2 µg/mL (≈ 5.41 µM)
[2]; MAI Complex Strain 101, 99% growth inhibition, read-out: Approximate Minimal Inhibitory Concentration (MIC) 99%
  MIC: 4 µg/mL (≈ 10.8 µM)
[2]; MAI Complex Strain 101, 99.9% growth inhibition, read-out: Approximate Minimal Inhibitory Concentration (MIC) 99.9%
  MIC: 4 µg/mL (≈ 10.8 µM)
[2]; MAI Complex Strain 102, 99% growth inhibition, read-out: Approximate Minimal Inhibitory Concentration (MIC) 99%
  MIC: 8 µg/mL (≈ 21.7 µM)
[2]; MAI Complex Strain 102, 99.9% growth inhibition, read-out: Approximate Minimal Inhibitory Concentration (MIC) 99.9%
  MIC: 8 µg/mL (≈ 21.7 µM)
[2]; MAI Complex Strain 103, 99% growth inhibition, read-out: Approximate Minimal Inhibitory Concentration (MIC) 99%
  MIC: 2 µg/mL (≈ 5.41 µM)
[2]; MAI Complex Strain 103, 99.9% growth inhibition, read-out: Approximate Minimal Inhibitory Concentration (MIC) 99.9%
  MIC: 2 µg/mL (≈ 5.41 µM)
[2]; MAI Complex Strain 104, 99% growth inhibition, read-out: Approximate Minimal Inhibitory Concentration (MIC) 99%
  MIC: 2 µg/mL (≈ 5.41 µM)
[2]; MAI Complex Strain 104, 99.9% growth inhibition, read-out: Approximate Minimal Inhibitory Concentration (MIC) 99.9%
  MIC: 2 µg/mL (≈ 5.41 µM)
[2]; MAI Complex Strain 105, 99% growth inhibition, read-out: Approximate Minimal Inhibitory Concentration (MIC) 99%
  MIC: 2 µg/mL (≈ 5.41 µM)
[2]; MAI Complex Strain 105, 99.9% growth inhibition, read-out: Approximate Minimal Inhibitory Concentration (MIC) 99.9%
  MIC: 2 µg/mL (≈ 5.41 µM)
[2]; MAI Complex Strain 107, 99% growth inhibition, read-out: Approximate Minimal Inhibitory Concentration (MIC) 99%
  MIC: 2 µg/mL (≈ 5.41 µM)
[2]; MAI Complex Strain 107, 99.9% growth inhibition, read-out: Approximate Minimal Inhibitory Concentration (MIC) 99.9%
  MIC: 2 µg/mL (≈ 5.41 µM)
[2]; MAI Complex Strain 108, 99% growth inhibition, read-out: Approximate Minimal Inhibitory Concentration (MIC) 99%
  MIC: 2 µg/mL (≈ 5.41 µM)
[2]; MAI Complex Strain 108, 99.9% growth inhibition, read-out: Approximate Minimal Inhibitory Concentration (MIC) 99.9%
  MIC: 2 µg/mL (≈ 5.41 µM)
[2]; MAI Complex Strain 109, 99% growth inhibition, read-out: Approximate Minimal Inhibitory Concentration (MIC) 99%
  MIC: 2 µg/mL (≈ 5.41 µM)
[2]; MAI Complex Strain 109, 99.9% growth inhibition, read-out: Approximate Minimal Inhibitory Concentration (MIC) 99.9%
  MIC: 2 µg/mL (≈ 5.41 µM)
[2]; MAI Complex Strain 110, 99% growth inhibition, read-out: Approximate Minimal Inhibitory Concentration (MIC) 99%
  MIC: 2 µg/mL (≈ 5.41 µM)
[2]; MAI Complex Strain 110, 99.9% growth inhibition, read-out: Approximate Minimal Inhibitory Concentration (MIC) 99.9%
  MIC: 2 µg/mL (≈ 5.41 µM)
[2]; MAI Complex Strain 111, 99% growth inhibition, read-out: Approximate Minimal Inhibitory Concentration (MIC) 99%
  MIC: 2 µg/mL (≈ 5.41 µM)
[2]; MAI Complex Strain 111, 99.9% growth inhibition, read-out: Approximate Minimal Inhibitory Concentration (MIC) 99.9%
  MIC: 2 µg/mL (≈ 5.41 µM)
[2]; MAI Complex Strain 113, 99% growth inhibition, read-out: Approximate Minimal Inhibitory Concentration (MIC) 99%
  MIC: 2 µg/mL (≈ 5.41 µM)
[2]; MAI Complex Strain 113, 99.9% growth inhibition, read-out: Approximate Minimal Inhibitory Concentration (MIC) 99.9%
  MIC: 2 µg/mL (≈ 5.41 µM)
[2]; MAI Complex Strain 116, 99% growth inhibition, read-out: Approximate Minimal Inhibitory Concentration (MIC) 99%
  MIC: 2 µg/mL (≈ 5.41 µM)
[2]; MAI Complex Strain 116, 99.9% growth inhibition, read-out: Approximate Minimal Inhibitory Concentration (MIC) 99.9%
  MIC: 2 µg/mL (≈ 5.41 µM)
[2]; MAI Complex Strain 117, 99% growth inhibition, read-out: Approximate Minimal Inhibitory Concentration (MIC) 99%
  MIC: 2 µg/mL (≈ 5.41 µM)
[2]; MAI Complex Strain 117, 99.9% growth inhibition, read-out: Approximate Minimal Inhibitory Concentration (MIC) 99.9%
  MIC: 2 µg/mL (≈ 5.41 µM)
[2]; MAI Complex Strain 128, 99% growth inhibition, read-out: Approximate Minimal Inhibitory Concentration (MIC) 99%
  MIC: 2 µg/mL (≈ 5.41 µM)
[2]; MAI Complex Strain 128, 99.9% growth inhibition, read-out: Approximate Minimal Inhibitory Concentration (MIC) 99.9%
  MIC: 2 µg/mL (≈ 5.41 µM)
[2]; every strain of the MAI complex tested (summary of Table II), read-out: concentration exhibiting inhibitory activity
  MIC: ≤ 8 µg/mL
